Data reported in PMC8805583, “Discovery of Herbacetin as a Novel SGK1 Inhibitor to Alleviate Myocardial Hypertrophy” (Advanced Science, 2021).

Assays:
[1] = Pharmacokinetics and tissue distribution after single oral administration; assay type: in vivo, Sprague-Dawley rats; details: single oral dose 40 mg kg−1
Protocol: Finally, we evaluate the safety and pharmacokinetics of HBT to ensure its druggability. […] Single dose administration of HBT at 40 mg kg^−1 was uptaken rapidly with a maximal plasma concentration of ≈6.73 ng mL^−1 after 10 min (Figure S14A, Supporting Information).
Figure S13. Serum level of biochemical markers in mice of Ctrl and Ctrl + HBT groups. Data were analyzed using unpaired two-tailed t test and data were expressed as means ± SD, ns: no […]
Figure S14. Plasma concentration (A) and in vivo distribution (B) of HBT after single oral administration with dosage of 40mg/kg rat weight (n=5-6). The quantitation of HBT was performed by LC-MS/MS analysis. […]
or Fluo-4 AM working solution was added to each well and incubated at 37℃ for 20 minutes.
Then the cells were washed with PBS for 3 times and images were acquired using an ImageXpress Micro® Confocal High-Content Imaging System (Molecular Devices). The mean fluorescence intensity of cells positive for DCFH-DA or Fluo-4 AM staining was […]
4. Histology and Immunohistochemistry (IHC)
At the end of the experiment, mice were sacrificed and the hearts were harvested, fixed in 4% formalin, and paraffin embedded. Fibrosis was detected with Masson’s trichrome staining kit (Sigma) according to the manufacturer’s protocol. SGK1 expression of cardiomyocytes was determined by staining cells with antibodies specific for SGK1.
RT-PCR was performed to validate DEGs in the FoxO signaling pathway in response to Ext.R and also HBT’s effect on hypertrophic cardiomyocytes stimulated with phenylephrine. Total RNA isolation, reverse transcription and quantitative RT-PCR were performed using an Ultrapure RNA Kit, a HiFiScript First Strand cDNA Synthesis Kit, and an UltraSYBR Mixture Kit (CWBIO) respectively, according to the manufacturer's instructions. Relative target gene mRNA expression level was normalized to GAPDH. Primer sequences of genes […]
6. Pharmacokinetics studies
Twelve male Sprague-Dawley rats, weighing 250 ± 10 g, were purchased from Huafukang biological technology (Beijing, China). […]

[2] = system: SGK1(S422D)-transfected primary cardiomyocytes; experiment: S422D SGK1-transfected primary cardiac myocytes (western blot, confocal microscopy); assay type: cell-based, rat
Protocol: Figure 5 HBT blocks induction of cardiac hypertrophic responses and the SGK1/FoxO1 signaling pathway. A) Cardiomyocytes were treated with 50 µmol PE in the presence or absence of Ext.R (50 µg mL^−1) or HBT (50 µmol) for 48 h. Cardiomyocytes were identified by cytoskeleton staining through the binding of phalloidin to F‐actin (green). Images were acquired using an ImageXpress Micro Confocal High‐Content Imaging System (Molecular Devices), with a 40 × PlanFluor objective. Relative cell area was quantified by the analysis module of […] High‐Content Image and Analysis Software (Molecular Devices). Control group (Ctrl), PE group, PE plus Ext.R group (Ext.R), and PE plus HBT group (HBT), n = 3 independent experiments, Scale bar, 50 µm. B,C) Quantification of relative ANP and BNP in cardiomyocytes treated with Ext.R or HBT, n = 3 independent experiments. D) Western blot analysis of related proteins in PE‐treated cardiomyocytes, n = 3–4 independent experiments. E) Co‐IP and western blot analysis of SGK1‐FoxO1 interaction in cardiomyocytes, n = 3 independent experiments. F) Western blot analysis of related proteins in nontransfected (control adenovirus) and in ^S422DSGK1‐transfected primary cardiac myocytes treated with DMSO as solvent control (^S422DSGK1‐transf. group) or HBT (50 µmol, ^S422DSGK1‐transf.+HBT group), n = 3 independent experiments. G) Confocal microscopy of nuclear translocation of FoxO1 in nontransfected (control adenovirus), ^S422DSGK1‐transfected cardiomyocytes treated with HBT (50 µmol) or DMSO as solvent control. Green signal represents FoxO1 and white arrow represents the translocation of FoxO1 to nuclei, n = 3 independent experiments, Scale bar, 25 µm. All data were analyzed using one‐way ANOVA and data were expressed as means ± SD, ##p < 0.01 versus Ctrl group, *p < 0.05, **p < 0.01 versus PE group or ^S422DSGK1‐transf. group.
In the present study, we studied HBT's effect on protein binding between SGK1 and FoxO1 by coimmunoprecipitation (Figure 5E). […] Nevertheless, as previously reported,^[ [30] ^] […] Supportively, after transfection with the SGK1(S422D) plasmid, we consistently detected increased cytoplasmic signal of FoxO1 compared to nontransfected cells in which the majority of FoxO1 signal was distributed in the nucleus.
SGK1 mutant plasmids and adenovirus were constructed by Vigene Bioscience. All the transfection assays were performed using Lipofectamine 2000 according to the manufacturer's protocol. Adenovirus (Ad‐^S422DSGK1) was diluted in DMEM and administered at a dose of 100 MOI in primary cardiomyocytes.

SMILES: O=c1c(O)c(-c2ccc(O)cc2)oc2c(O)c(O)cc(O)c12 [HBT, herbacetin]
- Tmax ([1]; male, Sprague-Dawley, plasma, rat, read-out: time of maximal plasma concentration (converted)): 10 min
- tissue distribution (heart, liver, kidney) ([1]; at time of maximal plasma concentration): readily detected
- maximal plasma concentration ([1]; rat): ≈ 6.73 ng mL^−1
- expression of STIM1 ([2]; HBT 50 µmol): moderately inhibited
- FoxO1 phosphorylation ([2]; SGK1(S422D) expression, HBT 50 µmol): reverse the alternation
- FoxO1 subcellular localization ([2]; SGK1(S422D) transfection, HBT 50 µmol, confocal microscopy): restrain FoxO1 in the nucleus
- level of Orai1 ([2]; constitutively expressed SGK1, HBT 50 µmol): significantly inhibited
- phosphorylation of NDRG1 ([2]; continuously-activated form of SGK1, HBT 50 μmol): reduce the phosphorylation
